This is an account of results in patent US20170349548A1, “P21-ACTIVATED KINASE INHIBITOR” (Biosystem Consulting Limited Company, priority 2014, published 2017).

As usually defined, the IC50 is the concentration that inhibits the measured activity by half.

Several values for one entry are separate records, joined by “and”; a condition that tells them apart may be missing. Equal values may be shown once.

The target of one assay is T1, Human PAK1 (Homo sapiens, UniProt Q13153).
T1 construct: purchased Promega V4479
T1 sequence (Q13153 whole entry): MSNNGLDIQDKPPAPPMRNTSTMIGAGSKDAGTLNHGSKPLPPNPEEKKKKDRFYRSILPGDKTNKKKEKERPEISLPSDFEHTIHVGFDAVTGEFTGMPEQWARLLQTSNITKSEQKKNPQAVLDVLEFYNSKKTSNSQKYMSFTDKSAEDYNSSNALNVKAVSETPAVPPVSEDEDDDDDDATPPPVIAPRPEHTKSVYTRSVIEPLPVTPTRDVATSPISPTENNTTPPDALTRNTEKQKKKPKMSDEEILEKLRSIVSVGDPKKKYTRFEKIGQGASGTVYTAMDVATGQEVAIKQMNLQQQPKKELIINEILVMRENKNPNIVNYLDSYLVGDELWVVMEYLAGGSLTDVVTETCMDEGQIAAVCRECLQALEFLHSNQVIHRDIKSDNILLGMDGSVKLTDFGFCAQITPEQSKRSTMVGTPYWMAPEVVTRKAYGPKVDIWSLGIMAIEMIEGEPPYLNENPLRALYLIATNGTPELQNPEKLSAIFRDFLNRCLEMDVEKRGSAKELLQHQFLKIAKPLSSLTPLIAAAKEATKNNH
Nature of the assay: PAK1 inhibitory activity, ADP-Glo kinase assay. The assay is classed as biochemical. Particulars: Human PAK1 25 ng; 10 min preincubation with test compound, 40 min with ATP/substrate mix; room temperature; luminescence; read-out: IC50 (PAK1 inhibitory activity). Here is the method:
The PAK inhibitory activities of the dehydrokawain compounds, mimosine or derivatives thereof and cucurbitacin I were determined. Assay of the PAK1 inhibitory activity was carried out using an ADP-Glo™ kinase assay kit (V4479, Promega, Madison, Wis.). Human PAK1 (10 μL) at a reaction concentration of 25 ng was incubated with 5 μL of the test compounds at the respective concentrations for 10 minutes. At the beginning of the reaction, 2.5×ATP/substrate mix (10 μL) was added and incubated for 40 minutes. The reaction was terminated by adding […]. In addition, 50 μL of Kinase detection reagent was added to cause the conversion of ADP to ATP and the emission reaction of freshly synthesized ATP. After incubation for 30 minutes, the intensity of emission in each well was measured by a Microplate Reader (MTP-880Lab, Corona) for 0.5 seconds as integration time. To the blank well was added all of the ingredients except for the test compounds and enzymes. The procedure was conducted at room temperature all the time. The inhibition rate was determined as the value on the kinase activity of control to which the inhibitor was not added.
On the technique in general: ADP-Glo turns the ADP formed in a reaction into a luminescent signal.
As to `N[C@@H](Cn1ccc(=O)c(O)c1)C(=O)N[C@@H](Cc1ccccc1)C(=O)N[C@@H](Cc1ccccc1)C(=O)N[C@@H](Cc1ccc(O)cc1)C(=O)O` [MFFY], the IC50 amounted to 0.13 µM.
Regarding `N[C@@H](Cn1ccc(=O)c(O)c1)C(=O)O` [Mimosine, β-[N-(3-hydroxy-4-pyridone)]-α-aminopropionic acid], the concentration for half-maximal inhibition (IC50) came out at 37 µM.
Regarding `COc1cc(/C=C/c2ccccc2)oc(=O)c1` [DK, 5,6-dehydrokawain], the IC50 is 17 µM and 17.1 µM.
On to `COc1cc(CCc2ccc(O)c(O)c2)oc(=O)c1` [H3, 6-(3,4-dihydroxyphenethyl)-4-methoxy-2H-pyran-2-one], for which the IC50 is 2 µM.
Still for that read-out and setting: the same measure for `N[C@@H](Cn1ccc(=O)c(O)c1)C(=O)N[C@@H](Cc1ccccc1)C(=O)N[C@@H](Cc1c[nH]c2ccccc12)C(=O)N[C@@H](Cc1ccc(O)cc1)C(=O)O` [MFWY]: 0.6 µM.
With `O=c1c(O)c(-c2ccc(O)c(O)c2)oc2cc(O)cc(O)c12` [Quercetin, quercetin, reference compound], the half-inhibitory concentration (IC50) amounted to 340 µM.
Still for that read-out and setting: for `N[C@@H](Cn1ccc(=O)c(O)c1)C(=O)N[C@@H](Cc1ccccc1)C(=O)N[C@@H](Cc1ccc(O)cc1)C(=O)N[C@@H](Cc1ccc(O)cc1)C(=O)O` [MFYY] the value was 2.3 µM.
In the case of `N[C@H](CO)Cn1ccc(=O)c(O)c1` [Mimosinol, mimosinol], the IC50 was 30 µM.
`COc1cc(CCc2ccc(OC)c(OC)c2)oc(=O)c1` [H2, 6-(3,4-dimethoxyphenethyl)-4-methoxy-2H-pyran-2-one]: the IC50 turned out to be 1.2 µM.
Turning to `COc1cc(/C=C/c2ccc(OC)c(OC)c2)oc(=O)c1` [H1, 6-(3,4-dimethoxystyryl)-4-methoxy-2H-pyran-2-one], the IC50 turned out to be 1.6 µM.
Turning to `COc1cc(CCc2ccccc2)oc(=O)c1` [DDK, dihydro-5,6-dehydrokawain], the IC50 is 10 µM and 10.3 µM.
Take `Oc1ccc(C=Cc2cc(O)cc(O)c2)cc1` [Resveratrol, resveratrol, reference compound]: the IC50 came to 15 µM.

Still in this assay, the particulars now being: IC50 (PAK1 inhibitory activity), Human PAK1 25 ng; 10 min preincubation with test compound, 40 min with ATP/substrate mix; room temperature; luminescence.
As to `CC(C)(O)/C=C/C(=O)[C@](C)(O)[C@H]1[C@H](O)C[C@@]2(C)[C@@H]3CC=C4C(C=C(O)C(=O)C4(C)C)[C@]3(C)C(=O)C[C@]12C` (stereo partly shown) [Cucurbitacin I, cucurbitacin I], inhibition was half-maximal at 19 µM (IC50).
